{
  "source": "ChEMBL document CHEMBL1155497",
  "about": "“Double stranded DNA discrimination by di-pyrene modified gamma-cyclodextrin” (Bioorg Med Chem Lett, 2010)",
  "assay_type_in_all_cases": "nucleic-acid assay",
  "key": {"[1]": {"tested_on": "Nucleic Acid", "experiment": "Binding affinity to double strand DNA assessed as increase in fluorescence intensity at 0.1 uM by fluorescence spectroscopy technique"}, "[2]": {"tested_on": "Nucleic Acid", "experiment": "Binding affinity to double strand DNA assessed as increase in fluorescence intensity at 0.6 uM by fluorescence spectroscopy technique"}, "[3]": {"tested_on": "Nucleic Acid", "experiment": "Binding affinity to single strand DNA assessed as increase in fluorescence intensity at 0.6 uM by fluorescence spectroscopy technique"}, "[4]": {"tested_on": "Nucleic Acid", "experiment": "Binding affinity to single strand DNA assessed as increase in fluorescence intensity at 0.1 uM by fluorescence spectroscopy technique"}, "[5]": {"tested_on": "Nucleic Acid", "experiment": "Binding affinity to double strand DNA assessed as increase in fluorescence intensity using > 0.00075 uM of DNA at 0.3 uM by fluorescence spectroscopy technique"}, "[6]": {"tested_on": "Nucleic Acid", "experiment": "Binding affinity to double strand DNA assessed as increase in fluorescence intensity using 0.00075 uM of DNA at 0.3 uM by fluorescence spectroscopy technique"}, "[7]": {"tested_on": "Nucleic Acid", "experiment": "Binding affinity to single strand DNA assessed as increase in fluorescence intensity at 0.3 uM by fluorescence spectroscopy technique"}, "[8]": {"tested_on": "Nucleic Acid", "experiment": "Binding affinity to single strand DNA assessed as increase in fluorescence intensity using > 0.00075 uM of DNA by fluorescence spectroscopy technique"}, "[9]": {"tested_on": "Nucleic Acid", "experiment": "Binding affinity to double strand DNA assessed as increase in fluorescence intensity by fluorescence spectroscopy technique"}, "[10]": {"tested_on": "Nucleic Acid", "experiment": "Binding affinity to single strand DNA assessed as increase in fluorescence intensity using 0.00075 uM of DNA by fluorescence spectroscopy technique"}},
  "note": "Activity calls are given as the source filed them. The calls are words filed in the database; no cut-off is given here.",
  "data": [
    {"smiles": "O=C(CSC[C@H]1O[C@@H]2O[C@@H]3[C@@H](CO)C[C@H](O[C@H]4[C@H](O)[C@@H](O)[C@@H](O[C@H]5[C@H](O)[C@@H](O)[C@@H](O[C@H]6[C@H](O)[C@@H](O)[C@@H](O[C@H]7[C@H](O)[C@@H](O)[C@@H](O[C@H]8[C@H](O)[C@@H](O)[C@@H](O[C@H]9[C@H](O)[C@@H](O)[C@@H](O[C@H]1[C@H](O)[C@H]2O)O[C@@H]9CO)O[C@@H]8CSCC(=O)NCCOCCOCCOCc1ccc2ccc8cccc9ccc1c2c89)O[C@@H]7CO)O[C@@H]6CO)O[C@@H]5CO)O[C@@H]4CO)[C@H](O)[C@H]3O)NCCOCCOCCOCc1ccc2ccc3cccc4ccc1c2c34", "values": [
      {"measurement": "Activity", "setting": "[1]", "value": "inactive"},
      {"measurement": "Activity", "setting": "[2]", "value": "inactive"},
      {"measurement": "Activity", "setting": "[3]", "value": "inactive"},
      {"measurement": "Activity", "setting": "[4]", "value": "inactive"}
    ]},
    {"smiles": "O=C(NCCOCCOCCOCc1ccc2ccc3cccc4ccc1c2c34)SC[C@H]1O[C@@H]2O[C@H]3[C@H](O)[C@@H](O)[C@@H](O[C@H]4[C@H](O)[C@@H](O)[C@@H](O[C@@H]5[C@@H](CO)C[C@H](O[C@H]6[C@H](O)[C@@H](O)[C@@H](O[C@H]7[C@H](O)[C@@H](O)[C@@H](O[C@H]8[C@H](O)[C@@H](O)[C@@H](O[C@H]9[C@H](O)[C@@H](O)[C@@H](O[C@H]1[C@H](O)[C@H]2O)O[C@@H]9CO)O[C@@H]8CO)O[C@@H]7CO)O[C@@H]6CSC(=O)NCCOCCOCCOCc1ccc2ccc6cccc7ccc1c2c67)[C@H](O)[C@H]5O)O[C@@H]4CO)O[C@@H]3CO", "values": [
      {"measurement": "Activity", "setting": "[5]", "value": "inactive"},
      {"measurement": "Activity", "setting": "[6]", "value": "Active"},
      {"measurement": "Activity", "setting": "[7]", "value": "inactive"}
    ]},
    {"smiles": "CCCN(CCCN(C)C)C1=CC(Cc2sc3ccccc3[n+]2C)c2ccccc2N1c1ccccc1", "note": "(stereo not given)", "values": [
      {"measurement": "Activity", "setting": "[8]", "value": "Active"},
      {"measurement": "Activity", "setting": "[9]", "value": "Active"},
      {"measurement": "Activity", "setting": "[10]", "value": "Active"}
    ]}
  ]
}
